Measurements from PubChem BioAssay (NCI).
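In this assay, cells in 96-well plates receive the compound at five concentrations for 48 hours. Endpoints are linearly interpolated between the surrounding concentrations. GI50: concentration for 50% inhibition of growth. TGI marks complete inhibition of growth.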

Experiments:
Assay in all cases: NCI-60 cell line screen, 48 h
SF-539 CNS = system: SF-539 CNS
OVCAR-3 ovarian = system: OVCAR-3 ovarian
NCI-H226 lung = system: NCI-H226 lung
M14 melanoma = system: M14 melanoma
CAKI-1 renal = system: CAKI-1 renal
IGROV1 ovarian = system: IGROV1 ovarian
SK-OV-3 ovarian = system: SK-OV-3 ovarian
MOLT-4 leukemia = system: MOLT-4 leukemia
NCI-H522 lung = system: NCI-H522 lung
HCT-15 colon = system: HCT-15 colon

Compound | GI50 (SF-539 CNS) | TGI (SF-539 CNS) | GI50 (OVCAR-3 ovarian) | TGI (OVCAR-3 ovarian) | GI50 (NCI-H226 lung) | TGI (NCI-H226 lung) | GI50 (M14 melanoma) | TGI (M14 melanoma) | GI50 (CAKI-1 renal) | TGI (CAKI-1 renal) | GI50 (IGROV1 ovarian) | TGI (IGROV1 ovarian) | GI50 (SK-OV-3 ovarian) | TGI (SK-OV-3 ovarian) | GI50 (MOLT-4 leukemia) | TGI (MOLT-4 leukemia) | GI50 (NCI-H522 lung) | TGI (NCI-H522 lung) | GI50 (HCT-15 colon) | TGI (HCT-15 colon)
O=C([O][Hg][CH2]C1OCCOC1[CH2][Hg][O]C(=O)c1ccccc1)c1ccccc1 (centres undefined) | 13.3 µM | 29.7 µM | 2.16 µM | 3.8 µM | 22.5 µM | 47.3 µM | 5.2 µM | 9.52 µM | 1.74 µM | 3.12 µM | 10.1 µM | 26.9 µM | 19.4 µM | 34.1 µM | 2.13 µM | 5.37 µM | 0.0642 µM | 0.23 µM | 8.95 µM | 24.9 µM
COc1ccc(NC(=O)CC/C(CC(=O)c2ccco2)=N/NC(N)=S)cc1 | – | > 100 µM | – | > 100 µM | – | > 100 µM | – | > 100 µM | – | > 100 µM | – | > 100 µM | – | > 100 µM | – | > 100 µM | – | > 100 µM | – | > 100 µM
C#CCN(Cc1nc2cc(C(F)(F)F)ccc2nc1-c1ccccc1)c1ccc(C)cc1 | 24.3 µM | > 100 µM | 3.7 µM | 16.8 µM | 8.07 µM | 33 µM | 5.4 µM | 32 µM | 8.15 µM | > 43.4 µM | 6.13 µM | > 64.9 µM | 8.56 µM | > 26.4 µM | 3.1 µM | > 79.9 µM | 3.3 µM | 26 µM | 6.01 µM | > 24.8 µM
CC(C)(C)[Si](C)(C)OC1[C@@H](O[Si](C)(C)C(C)(C)C)[C@@H](CNC(=O)NC(=O)CF)O[C@H]1n1cnc2c(NC(=O)Nc3ccccc3)ncnc21 (some centres undefined) | 14.5 µM | > 50 µM | 11.1 µM | 23.4 µM | 5.5 µM | > 50 µM | 15.9 µM | > 50 µM | 27.3 µM | > 50 µM | 22.5 µM | > 50 µM | > 50 µM | > 50 µM | 4.19 µM | 43.7 µM | > 50 µM | > 50 µM | 11.2 µM | > 50 µM
COc1ccc(Cn2cc3c(c2-c2ccccc2)CCc2cnoc2-3)cc1OC | 1.02 µM | 5.6 µM | 0.332 µM | 0.884 µM | 5.75 µM | > 100 µM | 0.566 µM | > 100 µM | 0.537 µM | > 100 µM | 1.59 µM | > 100 µM | 1.48 µM | > 100 µM | 1.05 µM | > 100 µM | 0.229 µM | 0.801 µM | 0.522 µM | > 100 µM
CC1(Br)CC2OC3(Br)C=CC(C)(O)C2(CC1=O)C3(C)C (centres undefined) | – | > 100 µM | – | > 100 µM | – | > 100 µM | – | > 100 µM | – | > 100 µM | – | > 100 µM | – | > 100 µM | – | > 100 µM | – | > 100 µM | – | > 100 µM
Cn1cc(C2=C(c3c4n(c5ccccc35)CCC(CN)C4)C(=O)NC2=O)c2ccccc21 (centres undefined) | 3.63 µM | 7.16 µM | 3.58 µM | 7.63 µM | 3.34 µM | 11.1 µM | 3.46 µM | 7.58 µM | 3.91 µM | 8.75 µM | 4 µM | 8 µM | 4.11 µM | 9.16 µM | 2.19 µM | 6.73 µM | 3.84 µM | 7.46 µM | 4.02 µM | 8.65 µM
COc1cc(/C(=C2/O[C@@H]([C@H]3COC(C)(C)O3)[C@H]3OC(C)(C)O[C@@H]23)c2ccc3ccccc3c2)cc(OC)c1OC | 14.3 µM | 79 µM | 2.39 µM | 5.67 µM | 3.49 µM | 60 µM | 6.7 µM | 23.8 µM | 4.54 µM | > 100 µM | 3.3 µM | 10.9 µM | 4.37 µM | > 100 µM | > 100 µM | > 100 µM | 2.27 µM | 6.54 µM | 76.8 µM | > 100 µM
CONC(C)=O | – | > 100 µM | – | > 100 µM | – | > 100 µM | – | > 100 µM | – | > 100 µM | – | > 100 µM | – | > 100 µM | – | > 100 µM | – | > 100 µM | – | > 100 µM
CCOC(=O)c1cc(C(=O)c2cc(OC)c(OC)c(OC)c2)n2c1ccc1ccccc12 | 0.216 µM | 0.723 µM | 0.151 µM | 1.26 µM | 1.23 µM | > 100 µM | 0.137 µM | > 100 µM | 0.0717 µM | > 100 µM | 0.353 µM | > 100 µM | 1.02 µM | > 100 µM | 0.477 µM | > 100 µM | 0.131 µM | – | 0.137 µM | > 100 µM
